The values below come from ChEMBL document CHEMBL3102719, “Ligands of the neuropeptide Y Y2 receptor” (Bioorg Med Chem Lett, 2014).

Non-standard residues stand in square brackets, D forms with d. Residues, ends and D or L forms follow the SMILES beside them. *: point of attachment. Palmitoyl = CCCCCCCCCCCCCCCC(=O)*; Ahx = NCCCCCC(=O)O

The target of data set [1] is T1, Neuropeptide Y receptor type 2 (Homo sapiens, UniProt P49146).
T1 sequence (P49146 whole entry): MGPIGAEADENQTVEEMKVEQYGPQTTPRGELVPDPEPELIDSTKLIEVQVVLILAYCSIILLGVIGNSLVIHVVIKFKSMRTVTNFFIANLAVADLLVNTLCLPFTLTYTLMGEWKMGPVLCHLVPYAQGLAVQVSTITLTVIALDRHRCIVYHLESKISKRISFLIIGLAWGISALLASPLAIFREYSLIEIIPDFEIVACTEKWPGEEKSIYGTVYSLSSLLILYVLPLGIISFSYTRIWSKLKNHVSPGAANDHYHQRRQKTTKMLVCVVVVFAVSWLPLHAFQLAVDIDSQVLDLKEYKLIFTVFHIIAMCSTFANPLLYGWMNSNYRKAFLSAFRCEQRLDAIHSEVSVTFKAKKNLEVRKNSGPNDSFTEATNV
Kind of data set: Displacement of [125I]-PYY from NPYY2 receptor (unknown origin). (In general: Displacement assays read how much labelled ligand stays bound in the presence of the test substance.)

The target in data set [2] is T2, Neuropeptide Y receptor type 2 (Homo sapiens) (UniProt P49146).
T2 sequence (whole entry): T1 sequence (P49146 whole entry)
Put plainly: Antagonist activity at NPYY2 receptor (unknown origin).

The target of data set [3] is T1, Neuropeptide Y receptor type 2. Kind of data set: Displacement of [125I]-PYY from human NPYY2 receptor.
The subject of the next data set is Mus musculus. Put plainly: Anticonvulsant activity in ip dosed mouse assessed as protection against 6 Hz psychomotor seizure. The format is functional.
A short description of data set [4]: Cmax in rat at 10 mg/kg, sc. It is filed as ADME, organism-based. Also on record: dose 10 mg/kg, route subcutaneous. Particulars: in vivo.
A short description of data set [5]: Oral bioavailability in rat at 10 mg/kg. Particulars: in vivo. The format is ADME, organism-based.
The species named for data set [6] is Homo sapiens. Kind of data set: Selectivity ratio of NPYY4 receptor (unknown origin) to NPYY2 receptor (unknown origin).
The species entered for data set [7] is Homo sapiens. Kind of data set: Selectivity ratio of NPYY5 receptor (unknown origin) to NPYY2 receptor (unknown origin).
Data set [8] is described as follows: Half life in rat at 10 mg/kg, sc. On the set-up: dose 10 mg/kg, route subcutaneous. Particulars: in vivo. The format is ADME, organism-based.
The species named for data set [9] is Homo sapiens. Put plainly: Selectivity ratio of NPYY1 receptor (unknown origin) to NPYY2 receptor (unknown origin).
Data set [10] in a line: Bioavailability in rat at 10 mg/kg, sc. Particulars: in vivo. It is filed as ADME, organism-based.
Data set [11] addresses T1, Neuropeptide Y receptor type 2. Put plainly: Binding affinity to NPYY2 receptor (unknown origin).
Data set [12] has the same target. Kind of data set: Binding affinity to NPYY2 receptor (unknown origin) preincubated for 20 mins.
In data set [13] the target is T3, Neuropeptide Y receptor type 5 (Homo sapiens, UniProt Q15761).
T3 sequence (Q15761 whole entry): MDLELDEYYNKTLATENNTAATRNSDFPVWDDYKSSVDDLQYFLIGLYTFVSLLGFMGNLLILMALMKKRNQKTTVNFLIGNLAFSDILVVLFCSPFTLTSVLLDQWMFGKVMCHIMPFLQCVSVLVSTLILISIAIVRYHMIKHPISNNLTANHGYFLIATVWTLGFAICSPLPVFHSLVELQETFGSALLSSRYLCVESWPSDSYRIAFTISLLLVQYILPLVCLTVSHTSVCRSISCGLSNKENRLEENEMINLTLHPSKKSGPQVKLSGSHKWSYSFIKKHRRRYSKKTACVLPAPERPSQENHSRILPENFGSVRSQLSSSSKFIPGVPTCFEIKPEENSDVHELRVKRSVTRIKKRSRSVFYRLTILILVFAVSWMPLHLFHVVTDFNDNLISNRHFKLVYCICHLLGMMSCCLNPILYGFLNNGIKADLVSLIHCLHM
Put plainly: Binding affinity to NPYY5 receptor (unknown origin).

Data set [14] has as its target T4, Alpha-1A adrenergic receptor (Homo sapiens, UniProt P35348).
T4 sequence (P35348 whole entry): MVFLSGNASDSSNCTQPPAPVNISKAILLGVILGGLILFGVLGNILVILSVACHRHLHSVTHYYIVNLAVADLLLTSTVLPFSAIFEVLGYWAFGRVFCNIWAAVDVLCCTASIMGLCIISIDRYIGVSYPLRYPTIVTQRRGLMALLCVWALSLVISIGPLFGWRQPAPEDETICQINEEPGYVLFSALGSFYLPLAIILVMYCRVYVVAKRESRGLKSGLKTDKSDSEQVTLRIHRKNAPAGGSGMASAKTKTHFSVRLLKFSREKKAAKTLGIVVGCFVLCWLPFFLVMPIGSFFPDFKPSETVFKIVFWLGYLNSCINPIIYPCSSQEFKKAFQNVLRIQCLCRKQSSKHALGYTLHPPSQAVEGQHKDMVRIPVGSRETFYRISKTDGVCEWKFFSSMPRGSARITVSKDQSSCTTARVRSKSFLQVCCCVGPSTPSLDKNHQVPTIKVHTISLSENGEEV
Put plainly: Binding affinity to adrenergic alpha1A receptor (unknown origin).

The target of data set [15] is Kappa-type opioid receptor (Homo sapiens, UniProt P41145). Kind of data set: Binding affinity to kappa opioid receptor (unknown origin).
Sequence of Kappa-type opioid receptor (P41145 whole entry): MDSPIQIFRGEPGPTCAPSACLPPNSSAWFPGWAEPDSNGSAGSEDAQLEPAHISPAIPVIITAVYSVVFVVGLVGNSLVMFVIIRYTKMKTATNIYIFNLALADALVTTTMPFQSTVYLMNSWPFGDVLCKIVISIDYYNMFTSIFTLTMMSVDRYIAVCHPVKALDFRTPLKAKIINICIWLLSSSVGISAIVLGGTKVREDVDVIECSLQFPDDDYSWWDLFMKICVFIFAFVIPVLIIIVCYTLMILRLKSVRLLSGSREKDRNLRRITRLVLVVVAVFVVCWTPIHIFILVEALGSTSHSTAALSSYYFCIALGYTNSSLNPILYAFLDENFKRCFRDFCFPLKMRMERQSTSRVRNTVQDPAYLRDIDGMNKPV
The target of a further data set is Mu-type opioid receptor (Homo sapiens, UniProt P35372). Put plainly: Binding affinity to mu opioid receptor (unknown origin).
Sequence of Mu-type opioid receptor (P35372 whole entry): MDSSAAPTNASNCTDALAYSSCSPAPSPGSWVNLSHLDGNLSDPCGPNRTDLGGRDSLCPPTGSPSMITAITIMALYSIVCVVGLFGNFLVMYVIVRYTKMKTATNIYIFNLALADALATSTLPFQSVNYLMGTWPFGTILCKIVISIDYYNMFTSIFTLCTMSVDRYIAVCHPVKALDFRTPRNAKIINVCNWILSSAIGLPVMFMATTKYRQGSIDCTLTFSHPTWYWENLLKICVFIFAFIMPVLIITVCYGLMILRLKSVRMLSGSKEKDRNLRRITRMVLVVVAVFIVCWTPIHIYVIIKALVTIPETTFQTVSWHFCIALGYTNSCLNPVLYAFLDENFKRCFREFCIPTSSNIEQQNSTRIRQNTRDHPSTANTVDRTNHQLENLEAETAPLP

In turn, `CN(C)CCCN(C(=O)c1cc2ccccc2s1)c1ccccc1Cc1ccccc1` gave a half-maximal inhibitory concentration (IC50) in data set [1] of 450 nM.
`CCC(CC)C(=O)Nc1ccc(N2CCN(C(c3cccc(F)c3)c3ncco3)CC2)c(C#N)c1` (stereo not given) returned a negative-log Kb (pKb) in data set [2] of 7.9.
As for `CCC(CC)C(=O)Nc1ccc(N2CCN(C(c3ccccc3)c3cc(C)no3)CC2)c(F)c1` (stereo not given), in data set [2], the pKb was 7.5. In data set [3], this compound displayed a half-maximal inhibitory concentration (IC50) of 38 nM.
In data set [3], `CCC(CC)C(=O)Nc1ccc(N2CCN(C(C(=O)N(CC)CC)c3ccc(Cl)cc3)CC2)c(F)c1` (stereo not given) had an IC50 of 100 nM.
The same measure, in the same setting: to `CCC(CC)C(=O)Nc1ccc(N2CCN(C(c3ccccc3)c3ncccn3)CC2)c(F)c1` (stereo not given) belongs 33 nM; to `CC(=O)N1CCc2ccc(N(CC#Cc3ccccc3)C3CCN(Cc4ccccc4)CC3)cc21`, 9200 nM.
The compound `CCC(CC)C(=O)Nc1ccc(N2CCN(C(c3ccccc3)c3nc(C)no3)CC2)c(F)c1` (stereo not given) gave a negative logarithm of the Kb (pKb) in data set [2] of 7.4.
In turn, `CN(C)CCCN(C(=O)[C@H]1C[C@@H]1c1ccccc1)c1ccccc1SCc1ccccc1` (relative stereo) yielded a half-maximal inhibitory concentration (IC50) in [1] of 3700 nM.
Regarding `CCCCCCCCCCCCCCCC(=O)NCCCC[C@H](NC(=O)[C@H](CCCCN)NC(=O)[C@H](CCCCN)NC(=O)[C@H](Cc1ccc(O)cc1)NC(C)=O)C(=O)NCCCCCC(=O)N[C@@H](C)C(=O)N[C@@H](CCCNC(=N)N)C(=O)N[C@@H](Cc1cnc[nH]1)C(=O)N[C@@H](Cc1ccc(O)cc1)C(=O)N[C@H](C(=O)N[C@@H](CC(N)=O)C(=O)N[C@@H](CC(C)C)C(=O)N[C@H](C(=O)N[C@H](C(=O)N[C@@H](CCCNC(=N)N)C(=O)N[C@@H](CCC(N)=O)C(=O)N[C@@H](CCCNC(=N)N)C(=O)N[C@@H](Cc1ccc(O)cc1)C(N)=O)[C@@H](C)O)[C@@H](C)CC)[C@@H](C)CC` (Ac-YKKK(Palmitoyl)[Ahx]ARHYINLITRQRY-NH2), the ED50 in the data set with Mus musculus worked out at 1.1 mg/kg.
For the compound `CCc1nc(C(c2ccccc2)N2CCN(c3ccc(NC(=O)C(CC)CC)cc3F)CC2)no1` (stereo not given), in data set [3], the half-inhibitory concentration (IC50) turned out to be 150 nM.
As to `CCC(CC)C(=O)Nc1ccc(N2CCN(C(c3ccccc3)C3CCOC3)CC2)c(F)c1` (stereo not given), the negative logarithm of the Kb (pKb) in data set [2] is 7.2. In addition, in data set [3], the 50% inhibitory concentration (IC50) amounted to 34 nM.
Regarding `CC(=O)N1CCc2ccc(N(C/C=C\c3ccccc3)C3CCN(Cc4ccccc4)CC3)cc21`, the IC50 in [3] amounted to 22000 nM.
Compound `CCC(CC)C(=O)Nc1ccc(N2CCN(C(c3ccccc3)c3nc(C(C)C)no3)CC2)c(F)c1` (stereo not given) yielded a half-maximal inhibitory concentration (IC50) in data set [3] of 170 nM.
Consider `CCN(CC)C(=O)C(c1ccccc1)N1CCN(c2ccc(NC(=O)c3ccccc3-c3cccnc3)cc2F)CC1` (stereo not given), for which the negative-log Kb (pKb) in data set [2] was determined as 8.04. Also, in data set [4], the Cmax was found to be 4.35 µM. Moreover, the bioavailability in data set [5] turned out to be 6%; in data set [10] it was 100%. In addition, the Selectivity ratio in the data set filed under Homo sapiens [6], in the data set filed under Homo sapiens [7] and in the data set listed under Homo sapiens [9] was greater than 100 in each case. The compound also gave a half-life in data set [8] of 49.8 min.
`CCC(CC)C(=O)Nc1ccc(N2CCN(C(c3ccccc3)c3nnc(C(C)C)o3)CC2)c(F)c1` (stereo not given) had a concentration for half-maximal inhibition (IC50) in data set [3] of 290 nM.
Consider `CCCCCCCCCCCCCCCC(=O)NCCCC[C@H](NC(=O)[C@H](CCCCN)NC(=O)[C@H](CCCCN)NC(=O)[C@H](Cc1ccc(O)cc1)NC(C)=O)C(=O)NCCCCCC(=O)N[C@@H](C)C(=O)N[C@@H](CCCN=C(N)N)C(=O)N[C@@H](Cc1cnc[nH]1)C(=O)N[C@@H](Cc1ccc(O)cc1)C(=O)N[C@H](C(=O)N[C@@H](CC(N)=O)C(=O)N[C@@H](CC(C)C)C(=O)N[C@H](C(=O)N[C@H](C(=O)N[C@@H](CCCN=C(N)N)C(=O)N[C@@H](CCC(N)=O)C(=O)N[C@@H](CCCN=C(N)N)C(=O)N[C@@H](Cc1ccc(O)cc1)C(N)=O)[C@@H](C)O)[C@@H](C)CC)[C@@H](C)CC` (Ac-YKKK(Palmitoyl)[Ahx]ARHYINLITRQRY-NH2), for which, in [11], the Ki came to 26.1 nM.
The compound `CCC(=O)NCCNC(=O)CCCC(=O)NC(=N)NCCC[C@H](NC(=O)CC1(CC(=O)N2CCN(C3c4ccccc4NC(=O)c4ccccc43)CC2)CCCC1)C(=O)NCCn1c(=O)n(-c2ccccc2)n(-c2ccccc2)c1=O` (stereo not given in full) registered an inhibition constant Ki in data set [12] of 9.9 nM.
`CCN(CC)C(=O)C(c1ccccc1)N1CCN(c2ccc(NC(=O)c3c(C)cnn3CC)cc2F)CC1` (stereo not given): the IC50 in data set [3] was 35 nM.
The same measure, in the same setting: to `CCC(CC)C(=O)Nc1ccc(N2CCN(C(C(=O)N(CC)CC)c3ccc(O)cc3)CC2)c(F)c1` (stereo not given) belongs 100 nM; to `CCN(CC)C(=O)C(c1ccccc1)N1CCN(c2ccc(-c3cccnc3)cc2F)CC1` (stereo not given), 740 nM; to `CCN(CC)C(=O)C(c1ccccc1)N1CCN(c2ccc(NC(=O)c3c(C)cnn3C(C)(C)C)cc2F)CC1` (stereo not given), 300 nM.
Same read-out and setting: to `CCN(CC)C(=O)C(c1ccccc1)N1CCN(c2ccc(-c3cc(=O)n(C(C)C)[nH]3)cc2F)CC1` (stereo not given) belongs 340 nM.
Consider Ac-LRHYLNLLTRQRY-NH2, for which the Ki in [13] was greater than 1000 nM.
Turning to `N=C(N)NCCCC(NC(=O)CC1(CC(=O)N2CCN(C3c4ccccc4NC(=O)c4ccccc43)CC2)CCCC1)C(=O)NCCn1c(=O)n(-c2ccccc2)n(-c2ccccc2)c1=O` (single isomer, unassigned), the Ki amounted to 360 nM in data set [14], 948 nM in [15] and 323 nM at Mu-type opioid receptor.
As for `CCN(CC)C(=O)C(c1ccccc1)N1CCN(c2ccc(-c3c(C)noc3C)cc2F)CC1` (stereo not given), in data set [3], the concentration for half-maximal inhibition (IC50) was 10000 nM.
The same measure, in the same setting: to `CCN(CC)C(=O)C(c1ccccc1)C1CCN(c2ccc(NC(=O)C3CCOC3)cc2F)CC1` (stereo not given) belongs 25 nM.
In [2], `CCc1noc(C(c2ccccc2)N2CCN(c3ccc(NC(=O)C(CC)CC)cc3F)CC2)n1` (stereo not given) registered a pKb of 7.45.
Compound `CCC(CC)C(=O)Nc1ccc(N2CCN(C(c3ccccc3)c3ncno3)CC2)c(F)c1` (stereo not given) displayed a concentration for half-maximal inhibition (IC50) in data set [3] of 240 nM.
Same read-out and setting: to `CCC(CC)C(=O)Nc1ccc(N2CCN(C(c3ccccc3)c3nc(-c4ccccc4)no3)CC2)c(F)c1` (stereo not given) belongs 720 nM.

By IC50 is commonly meant the concentration at which inhibition is half-maximal. The low end stands for inhibition by little substance, the high end for a need for much substance. A word on the pKb: it is −log10 of the Kb, conventionally taken in molar units. High values mean a small Kb, low ones a large Kb. Broadly, the ED50 is the midpoint of the dose-response relation. As usually defined, the Cmax is the peak of the concentration-time curve. Broadly, the bioavailability is dose-corrected exposure relative to a reference, in per cent. Lower therefore signals poor availability. For orientation: half-life means the time needed for the level to fall by half in the phase considered. The low end stands for rapid decline, the high end for slow decline. For orientation: Ki means the equilibrium dissociation constant of an inhibitor or competing ligand from its target.
